Measured values taken from patent US20030044399A1, “Method of treatment” (SmithKline Beecham Corporation, priority 1998, published 2003).

Biological target: Cruzain (Trypanosoma cruzi, UniProt P25779)
Assay: Cysteine protease inhibition, progress curve method, cruzain
Format: biochemical
Details: 4 uM Ac-Lys-Glu-Lys-Leu-Arg-AMC, 100 mM Na acetate pH 5.5, 5 mM cysteine; read-out: Cruzain Ki
Protocol: Standard assay conditions for the determination of kinetic constants used 10 uM fluorogenic peptide substrate, Cbz-Phe-Arg-AMC for the cysteine proteases from Leishmania spp and Schistosoma Mansoni, Cbz-Leu-Arg-AMC for the cysteine proteases from Plasmodium falciparum and Trypanosoma brucei rhodesiensi, and Ac-Lys-Glu-Lys-Leu-Arg-AMC (4 uM final substrate concentration) for the cysteine protease from Trypoanosoma cruzi, and were determined in 100 mM Na acetate at pH 5.5 containing 5 mM cysteine. Stock substrate solutions were prepared at concentrations of […] in DMSO with 10 uM (4 uM for Ac-Lys-Glu-Lys-Leu-Arg-AMC) final substrate concentration in the assays. The final DMSO concentration was 2% and the final volume was 100 uL. All assays were conducted at ambient temperature. Product progress curves were generated over 20 to 30 minutes following formation of AMC product.
Potential inhibitors were evaluated using the progress curve method. Assays were carried out in the presence of variable concentrations of test compound. Reactions were initiated by addition of enzyme to buffered solutions of inhibitor and substrate. Data analysis was conducted according to one of two procedures depending on the appearance of the progress curves in the presence of inhibitors. For those compounds whose progress curves were linear, apparent inhibition constants (Ki,app) were calculated according to equation 1 (Brandt et al., Biochemitsry, 1989, 28, 140):
v=VmA/[Ka(1+I/Ki,app)+A] (1)
Where v is the velocity of the reaction with maximal velocity Vm, A is the concentration of substrate with Michaelis constant of Ka, and I is the concentration of inhibitor.
[AMC]=vsst+(v0−vss)[1−exp (−kobst)]/kobs (2)
Where [AMC] is the concentration of product formed over time t, v0 is the initial reaction velocity and vss is the final steady state rate. Values for kobs were then analyzed as a linear function of inhibitor concentration to generate an apparent second order rate constant (kobs/inhibitor concentration or kobs/[I]) describing the time-dependent inhibition. A complete discussion of this kinetic treatment has been fully described (Morrison et al., Adv. Enzymol. Relat. Areas Mol. Biol., 1988, 61, 201).
Exemplary inhibition data for the compounds used in the present method collected in accordance with the above-described procedure are listed in Table I.

Cruzain, sequence (P25779 123-337): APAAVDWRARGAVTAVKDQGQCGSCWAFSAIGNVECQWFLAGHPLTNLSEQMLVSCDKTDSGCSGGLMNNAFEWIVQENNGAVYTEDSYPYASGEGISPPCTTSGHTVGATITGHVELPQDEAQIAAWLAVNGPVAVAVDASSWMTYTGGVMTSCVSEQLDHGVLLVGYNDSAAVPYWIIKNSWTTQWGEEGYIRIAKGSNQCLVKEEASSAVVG

SMILES	Ki [nM]
COc1cccc2oc(C(=O)N[C@@H](CC(C)C)C(=O)N[C@H]3CCN(S(=O)(=O)c4cccc[n+]4[O-])CCC3=O)c(C)c12 [Example 203, 4-Methoxy-3-methyl-benzofuran-2-carboxylic acid {(S)-3-methyl-1-[3-oxo-1-(1-oxy-pyridine-2-sulfonyl)-azepan-4-ylcarbamoyl]-butyl}-amide]	20
CC(C)C[C@H](NC(=O)c1cnc2ccccc2n1)C(=O)N[C@H]1CCCN(S(=O)(=O)c2ccccc2F)CC1=O [Example 96, Quinoxaline-2-carboxylic acid-{(S)-1-[1-(2-fluoro-benzenesulonyl)-3-oxo-azepan-4-ylcarbamoyl]-3-methyl-butyl}-amide]	8.7
CCCC[C@H](NC(=O)c1cc2ccccc2o1)C(=O)NC1CCCN(S(=O)(=O)c2ccccn2)CC1=O (stereo partly drawn) [Example 103, Benzofuran-2-carboxylic acid{(S)-1-[3-oxo-1-(pyridine-2-sulfonyl)-azepan-4-ylcarbamoyl]-pentyl}-amide]	60
CC(C)C[C@@H](NC(=O)c1cc2cc(OCCN3CCOCC3)ccc2o1)C(=O)N[C@@H]1CCCN(S(=O)(=O)c2ccccn2)CC1=O [Example 18, 5-(2-Morpholino-4-yl-ethoxy)-benzofuran-2-carboxylic acid {(S)-3-methyl-1-[3-oxo-1-(pyridine-2-sulfonyl)-azepan-4-ylcarbamoyl]-butyl}1-amide]	6.3
CC(C)C[C@@H](NC(=O)c1nccc2ccccc12)C(=O)N[C@@H]1CCCN(S(=O)(=O)c2ccccn2)CC1=O (stereo in doubt) [Example 29, Isoquinoline-1-carboxylic acid {(S)-3-methyl-1-[3-oxo-1-(pyridine-2-sulfonyl)-azepan-4-ylcarbamoyl]-butyl}amide]	11
CC(C)C[C@@H](NC(=O)c1cc2cc(OCCN3CCCCC3)ccc2o1)C(=O)NC1CCCN(S(=O)(=O)c2ccccc2)CC1=O (single isomer, unassigned) [Example 14]	67
CC(C)C[C@@H](NC(=O)c1cc2ccccc2o1)C(=O)N[C@@H]1CCCN(S(=O)(=O)c2ccccc2)CC1=O (stereo in doubt) [Example 12, Benzofuran-2-carboxylic acid [(S)-1-(1-benzenesulfonyl-3-oxo-azepan-4-ylcarbamoyl)-3-methyl-butyl]amide]	16
CC(C)C[C@H](NC(=O)c1cc2ccccc2o1)C(=O)N[C@H]1CCCN(S(=O)(=O)c2cccs2)CC1=O [Example 38, Benzofuran-2-carboxylic acid {(S)-3-methyl-1-[3-oxo-1-(thiophene-2-sulfonyl)-azepan-4-ylcarbamoyl]-butyl}-amide]	4.5
CC(C)C[C@H](NC(=O)c1cc2ccccc2s1)C(=O)N[C@H]1CCCN(S(=O)(=O)c2ccccc2F)CC1=O [Example 95, Benzo[b]thiophene-2-carboxylic acid-{(S)-1-[1-(2-fluoro-benzenesulfonyl)-3-oxo-azepan-4-ylcarbamoyl]-3-methyl-butyl}-amide]	11
CC(C)CC(NC(=O)c1ccc(S(C)(=O)=O)cc1)C(=O)N[C@@H]1CCCN(S(=O)(=O)c2ccccc2C#N)CC1=O (some centres unmarked) [Example 114]	14
Cc1c(C(=O)N[C@H](CC(C)C)C(=O)N[C@H]2CCCN(S(=O)(=O)c3cccc[n+]3[O-])CC2=O)oc2ccc(F)cc12 [Example 192, 5-Fluoro-3-methyl-benzofuran-2-carboxylic acid {(S)-3-methyl-1-[3-oxo-1-(1-oxy-pyridine-2-sulfonyl)-azepan-4-ylcarbamoyl]-butyl}-amide]	14
COc1ccc2oc(C(=O)N[C@H](CC(C)C)C(=O)N[C@@H]3CCCN(S(=O)(=O)c4cccc[n+]4[O-])CC3=O)cc2c1 [Example 53, 5-Methoxy-benzofuran-2-carboxylic acid {(S)-3-methyl-1[3-oxo-1-(1-oxy-pyridine-2-sulfonyl)-azepan-4-ylcarbamoyl]-butyl}amide]	10

Further compounds by falling Ki, results first:

Ki [nM]	SMILES
24	CC(C)CCC(=O)N1CCCC(NC(=O)[C@@H](CC(C)C)NC(=O)c2cc3cc(OCCN4CCOCC4)ccc3o2)C(=O)C1 (stereo partly drawn) [Example 15, 5-(2-Morpholino-4-yl-ethoxy)-benzofuran-2-carboxylic acid {(S)-3-methyl-1-[1-(4-methyl-2entanoyl)-3-oxo-azepan-4-ylcarbamoyl]-butyl}-amide]
18	CC(C)C[C@H](NC(=O)c1cc2ccccc2s1)C(=O)NC1CCCN(S(C)(=O)=O)CC1=O (stereo partly drawn) [Example 111, Benzo[b]thiophene-2-carboxylic acid-{(S)-1-(1-methanesulfonyl-3-oxo-azepan-4-ylcarbamoyl)-3-methyl-butyl]-amide]
15	CC(C)CC(NC(=O)c1cc2ccccc2o1)C(=O)NC1CCC(C)N(S(=O)(=O)c2ccccn2)CC1=O (stereo in doubt) [Example 181, Benzofuran-2-carboxylic acid {(S)-3-methyl-1-[(4S,7S)-7-methyl-3-oxo-1-(pyridine-2-sulfonyl)-azepan-4-ylcarbamoyl]-butyl}-amide]
15	CC(C)CC(NC(=O)NCc1ccccc1)C(=O)NC1CCCN(S(=O)(=O)c2ccccn2)CC1=O [Example 80, (S)-2-(3-Benzyl-ureido)-4-methyl-pentanoic acid [3-oxo-carboxylic-(pyridine-2-sulfonyl)azepan4-yl]-amide]
13	CC(C)C[C@@H](NC(=O)c1cc2cc(F)c(F)cc2o1)C(=O)N[C@H]1CCCN(S(=O)(=O)c2cccc[n+]2[O-])CC1=O [Example 163, 5,6-Difluoro-benzofuran-2-carboxylic acid {(S)-3-methyl-1-[3-oxo-1-(1-oxy-pyridine-2-sulfonyl)-azepan-4-ylcarbamoyl]-butyl}amide]
11	CC(C)C[C@@H](NC(=O)c1ccc(S(C)(=O)=O)cc1)C(=O)N[C@@H]1CCCN(S(=O)(=O)c2ccc(F)cc2)CC1=O [Example 121, 4-Methansulfonyl-N—{(S)-1-[4-fluoro-benzenesulfonyl)-3-oxo-azepan-4-carbamoyl]-3-methyl-butyl-benzamide]
9.8	CC(C)C[C@@H](NC(=O)c1ccc2c(c1)OCCCO2)C(=O)N[C@@H]1CCCN(S(=O)(=O)c2cccc[n+]2[O-])CC1=O [Example 60, 3,4-Dihydro-2H-benzo[b][1,4]dioxepine-7-carboxylic acid {(S)-3-methyl-1-[3-oxo-1-(1-oxy-pyridine-2-sulfonyl)-azepan-4-ylcarbamoyl]butyl}amide]
7.8	CC(C)C[C@@H](NC(=O)c1cc2cc(OCCN3CCOCC3)ccc2o1)C(=O)NC1CCCN(S(=O)(=O)c2cccc[n+]2[O-])CC1=O (stereo partly drawn) [Example 56, 5-(2-Morpholin-4-yl-ethoxy)-benzofuran-2-carboxylic acid {(S)-3-methyl-1-[3-oxo-(1-oxy-pyridine2-sulfonyl)-azepan-4-ylcarbamoyl]-buty}-amide]
6.8	CC(C)C[C@H](NC(=O)[C@H]1CCC(=O)N1Cc1ccccc1)C(=O)N[C@@H]1CCCN(S(=O)(=O)c2ccccn2)CC1=O [Example 158]
6.7	CC(C)C[C@H](NC(=O)c1cc2ccccc2s1)C(=O)N[C@@H]1CCCN(S(=O)(=O)c2cccs2)CC1=O [Example 146, Benzo[b]thiophene-2-carboxylic acid-{(S)-3-methyl-1-[3-oxo-1-(thiophene-2-sulfonyl)-azepan-4-ylcarbamoyl]-butyl}-amide]
6.2	CC(C)C[C@H](NC(=O)c1cc2ccccc2o1)C(=O)N[C@H]1CCCN(S(=O)(=O)c2ccccc2F)CC1=O [Example 91]
